Measured values taken from patent publication US20240116946A1 (Gilead Sciences, Inc., priority 2022, published 2024).
Read-outs that look alike come from different tables or passages of the source.

Key:
[1] = target: recombinant SARS-CoV-2 Main protease (Mpro) (Severe acute respiratory syndrome coronavirus 2 (2019-nCoV) (SARS-CoV-2), UniProt P0DTD1); experiment: Cov Mpro Biochemical IC50 Assay; settings: recombinant SARS-CoV-2 Mpro 7.5 nM, fluorogenic peptide substrate 40 μM; read-out: MPro IC50
SARS-CoV-2-NLuc = experiment: microbe, parasite or virus in culture; format: cell-based, SARS Coronavirus 2
[2] = Severe acute respiratory syndrome coronavirus, 48 h; read-out: MPro EC50
[3] = Severe acute respiratory syndrome coronavirus, 48 h, read-out: MPro EC50

Structure (SMILES)	IC50 [1] [nM]	EC50 (SARS-CoV-2-NLuc; [2]) [nM]	EC50 (SARS-CoV-2-NLuc; [3]) [nM]	EC50 (SARS-CoV-2-NLuc; read-out: MPro EC50) [nM]
CC(C)(C)c1cncc(-n2c(=O)[nH]c3cc(-c4ccccc4Cl)ccc3c2=O)c1 [Example 579]	> 50000	42600		
COc1ccc(Cl)c(-c2cc3[nH]c(=O)n(-c4cncc5cc(F)ccc45)c(=O)c3s2)c1 [Example 580, 6-(2-chloro-5-methoxyphenyl)-3-(7-fluoroisoquinolin-4-yl)thieno[3,2-d]pyrimidine-2,4(1H,3H)-dione]	7.53		70.9	
COc1ccc(Cl)c(-c2cc3[nH]c(=O)n(-c4cncc5ccc(O)cc45)c(=O)c3s2)c1 [Example 581]	< 2.54		151	
COc1ccc(Cl)c(-c2cc3[nH]c(=O)n(-c4cncc5cnccc45)c(=O)c3s2)c1 [Example 582]	8.83		31.7	
COc1ccc(C#N)c(-c2cc3[nH]c(=O)n(-c4cncc5cnccc45)c(=O)c3s2)c1 [Example 583]	20.9		227	
O=c1[nH]c2cc(-c3ccccc3Cl)sc2c(=O)n1-c1cncc2cnccc12 [Example 584]	12.9		31.9	
COc1ccc(Cl)c(-c2cc3[nH]c(=O)n(-c4cncc5c(F)cccc45)c(=O)c3s2)c1 [Example 585]	10.1		29.3	
COc1ccc(Cl)c(-c2cc3[nH]c(=O)n(-c4cncc5c4OCCC5)c(=O)c3s2)c1 [Example 586]	26.2		54.3	
COc1ccc(C#N)c(-c2cc3[nH]c(=O)n(-c4cncc5c4OCCC5)c(=O)c3s2)c1 [Example 587]	27.9		117	
O=c1[nH]c2cc(-c3ccccc3Cl)sc2c(=O)n1-c1cncc2c1OCCC2 [Example 588]	14.8		47.4	
COc1ccc(C#N)c(-c2cc3[nH]c(=O)n(-c4cncc5ccc(F)cc45)c(=O)c3s2)c1 [Example 589]	5.01		23.7	
O=c1[nH]c2cc(-c3ccccc3Cl)sc2c(=O)n1-c1cncc2cc(Cl)ccc12 [Example 590]	194		299	
COc1ccc(Cl)c(-c2cc3[nH]c(=O)n(-c4cncc5cc(Cl)ccc45)c(=O)c3s2)c1 [Example 591]	12.2		142	
O=c1[nH]c2cc(-c3ccccc3Cl)sc2c(=O)n1-c1cncc2c(Cl)cccc12 [Example 592]	> 50000		39500	
COc1ccc(Cl)c(-c2ccc3c(=O)n(-c4cncc5c(Cl)cccc45)c(=O)[nH]c3c2)c1 [Example 593]	38400		5790	
COc1ccc(C#N)c(-c2cc3[nH]c(=O)n(-c4cncc5c(Cl)cccc45)c(=O)c3s2)c1 [Example 594]	883		929	
COc1ccc(Cl)c(-c2cc3[nH]c(=O)n(-c4cncc5c(Cl)cccc45)c(=O)c3s2)c1 [Example 595]	476		1180	
O=c1[nH]c2cc(-c3ccccc3Cl)sc2c(=O)n1-c1cncc2c1CCCO2 [Example 596]	38.2		108	
COc1ccc(Cl)c(-c2ccc3c(=O)n(-c4cncc5c4CCCO5)c(=O)[nH]c3c2)c1 [Example 597]	160		205	
COc1ccc(C#N)c(-c2cc3[nH]c(=O)n(-c4cncc5c4CCCO5)c(=O)c3s2)c1 [Example 598]	29.6		150	
COc1ccc(Cl)c(-c2cc3[nH]c(=O)n(-c4cncc5c4CCCO5)c(=O)c3s2)c1 [Example 599]	4.98		48.9	
O=c1[nH]c2cc(-c3ccccc3Cl)sc2c(=O)n1-c1cncc2cccc(Cl)c12 [Example 600]	5.29		18.1	
COc1ccc(Cl)c(-c2cc3[nH]c(=O)n(-c4cncc5cccc(Cl)c45)c(=O)c3s2)c1 [Example 601]	< 2.54		14.7	
COc1ccc(C#N)c(-c2cc3[nH]c(=O)n(-c4cncc5ccc(N6CCn7c(nnc7C(F)(F)F)C6)cc45)c(=O)c3s2)c1 [Example 602]	5.77		359	
COc1ccc(Cl)c(-c2cc3[nH]c(=O)n(-c4cncc5ccc(N6CCn7c(nnc7C(F)(F)F)C6)cc45)c(=O)c3s2)c1 [Example 603]	2.75		14.6	

Structure (SMILES)	IC50 [1] [nM]	EC50 (SARS-CoV-2-NLuc; [2]) [nM]	EC50 (SARS-CoV-2-NLuc; [3]) [nM]	EC50 (SARS-CoV-2-NLuc; read-out: MPro EC50) [nM]
COc1ccc(Cl)c(-c2cc3[nH]c(=O)n(-c4cncc5ccc(N6CCn7nc(C(F)(F)F)nc7C6)cc45)c(=O)c3s2)c1 [Example 604]	6.32		10.9	
COc1ccc(C#N)c(-c2cc3[nH]c(=O)n(-c4cncc5ccc(N6CCn7nc(C(F)(F)F)nc7C6)cc45)c(=O)c3s2)c1 [Example 605]	10.1		91.2	
COc1ccc(Cl)c(-c2cc3[nH]c(=O)n(-c4cncc5ccc(N6CCn7nnc(C)c7C6)cc45)c(=O)c3s2)c1 [Example 606]	< 2.54		28.1	
COc1ccc(Cl)c(-c2cc3[nH]c(=O)n(-c4cncc5sccc45)c(=O)c3s2)c1 [Example 607]	4.52		4.34	
COc1ccc(C#N)c(-c2cc3[nH]c(=O)n(-c4cncc5sccc45)c(=O)c3s2)c1 [Example 608]	< 2.54		< 4.97	
COc1ccc(Cl)c(-c2cc3[nH]c(=O)n(-c4cncc5scc(C)c45)c(=O)c3s2)c1 [Example 609, 6-(2-chloro-5-methoxyphenyl)-3-(3-methylthieno[2,3-c]pyridin-4-yl)thieno[3,2-d]pyrimidine-2,4(1H,3H)-dione]	< 2.54		< 3.39	
COc1ccc(Cl)c(-c2cc3[nH]c(=O)n(-c4cncc5ccc(N6CCn7cc(C(F)(F)F)nc7C6)cc45)c(=O)c3s2)c1 [Example 610]	< 2.54		13.9	
COc1cc(-c2cc3[nH]c(=O)n(-c4cncc5scc(C)c45)c(=O)c3s2)c(Cl)cc1F [Example 611, 6-(2-chloro-4-fluoro-5-methoxyphenyl)-3-(3-methylthieno[2,3-c]pyridin-4-yl)thieno[3,2-d]pyrimidine-2,4(1H,3H)-dione]	< 2.54		4.95	
COc1ccc(Cl)c(-c2cc3[nH]c(=O)n(-c4cncc(CC(=O)N5CCOCC5)c4)c(=O)c3s2)c1 [Example 612]	12.2		> 1000	
CNC(=O)CCn1c(=O)n(-c2cncc3ccccc23)c(=O)c2sc(-c3ccccc3Cl)cc21 [Example 613, 3-(6-(2-chlorophenyl)-3-(isoquinolin-4-yl)-2,4-dioxo-3,4-dihydrothieno[3,2-d]pyrimidin-1(2H)-yl)-N-methylpropanamide]	68.6	91.9		
CC(=O)NCCn1c(=O)n(-c2cncc3ccccc23)c(=O)c2sc(-c3ccccc3Cl)cc21 [Example 614]	35			64
Cc1cc(-c2cccc(Cl)c2-c2cc3[nH]c(=O)n(-c4cncc(C5CC5)c4)c(=O)c3s2)cnn1 [Example 615, 6-(2-chloro-6-(6-methylpyridazin-4-yl)phenyl)-3-(5-cyclopropylpyridin-3-yl)thieno[3,2-d]pyrimidine-2,4(1H,3H)-dione]	9.85	140		
O=c1[nH]c2cc(-c3c(Cl)cccc3-c3ccnnc3)sc2c(=O)n1-c1cncc(C2CC2)c1 [Example 616]	6.92		320	
Cc1nn(C)cc1-c1cccc(Cl)c1-c1cc2[nH]c(=O)n(-c3cncc(C4CC4)c3)c(=O)c2s1 [Example 617]	7.26		19.5	
Cc1cc(-c2cccc(Cl)c2-c2cc3[nH]c(=O)n(-c4cncc(C5CC5)c4)c(=O)c3s2)cn2ncnc12 [Example 618]	6.56		16	
CNC(=O)CCn1c(=O)n(-c2cncc(C3CC3)c2)c(=O)c2sc(-c3ccccc3Cl)cc21 [Example 619, 3-(6-(2-chlorophenyl)-3-(5-cyclopropylpyridin-3-yl)-2,4-dioxo-3,4-dihydrothieno[3,2-d]pyrimidin-1(2H)-yl)-N-methylpropanamide]	245	451		
CC(=O)NCCn1c(=O)n(-c2cncc(C3CC3)c2)c(=O)c2sc(-c3ccccc3Cl)cc21 [Example 620]	281		759	
Cn1cnc(Cn2c(=O)n(-c3cncc(C4CC4)c3)c(=O)c3sc(-c4ccccc4Cl)cc32)n1 [Example 621]	495		710	
O=c1[nH]c2cc(-c3ccccc3Cl)sc2c(=O)n1-c1cncc2ccc(F)cc12 [Example 622, 6-(2-chlorophenyl)-3-(6-fluoroisoquinolin-4-yl)thieno[3,2-d]pyrimidine-2,4(1H,3H)-dione]	15.4	39.3		
COc1ccc(Cl)c(-c2cc3[nH]c(=O)n(-c4cncc5ccc(F)cc45)c(=O)c3s2)c1 [Example 623, 6-(2-chloro-5-methoxy-phenyl)-3-(6-fluoro-4-isoquinolyl)-1H-thieno[3,2-d]pyrimidine-2,4-dione]	11.5	30		
COc1ccc(Cl)c(-c2cc3[nH]c(=O)n(-c4cncc5cc(OC)ccc45)c(=O)c3s2)c1 [Example 624, 6-(2-chloro-5-methoxyphenyl)-3-(7-methoxyisoquinolin-4-yl)thieno[3,2-d]pyrimidine-2,4(1H,3H)-dione]	88.7	386		
COc1ccc(Cl)c(-c2cc3[nH]c(=O)n(-c4cncc5ccc(OC)cc45)c(=O)c3s2)c1 [Example 625]	6.91		18.1	
COc1ccc(C#N)c(-c2cc3[nH]c(=O)n(-c4cncc5ccc(OC)cc45)c(=O)c3s2)c1 [Example 626]	7.68		32.2	
COc1ccc(Cl)c(-c2cc3[nH]c(=O)n(-c4cncc5c(OC)cccc45)c(=O)c3s2)c1 [Example 627]	1970		4770	
COc1cc(-c2cc3c(s2)c(=O)n(-c2cncc4ccccc24)c(=O)n3CC#N)c(Cl)cc1F [Example 630, 2-[6-(2-chloro-4-fluoro-5-methoxy-phenyl)-3-(4-isoquinolyl)-2,4-dioxo-thieno[3,2-d]pyrimidin-1-yl]acetonitrile]	6.31	9.35		
